From patent US7527792B1, “Pharmaceutical composition comprising an anti-cancer and at least a peptide” (Synt : EM, priority 1998, dated 2009)
Where “and” joins values, the source holds several entries; their conditions need not be identical. Identical values can stand only once. Like-named read-outs stand apart in the source and are kept apart here. Numbered stars: 1 amine (or outer) side, 2 acyl side, 3 side chain; on linkers, the order of the positions; unused ones are H or OH. Peptide text beside a SMILES is read from it. * marks the point of attachment. X1 = COc1cccc2c1C(=O)c1c(O)c3c(c(O)c1C2=O)C[C@@](O)(C(=O)CO)C[C@@H]3O[C@H]1C[C@H](NC(=O)CCN2C(=O)CC(*)C2=O)[C@H](O)[C@H](C)O1; Doxorubicin(3'-N) = COc1cccc2c1C(=O)c1c(O)c3c(c(O)c1C2=O)C[C@@](O)(C(=O)CO)C[C@@H]3O[C@H]1C[C@H](N*)[C@H](O)[C@H](C)O1; Suc = O=C(CCC(=O)[*:2])[*:1]

Legend:
Format in all cases: cell-based, human
resistant K562/ADR cells [1] = experiment: Cytotoxicity, MTT test, resistant line; conditions: for F. Rev (reversion factor): K562/ADR, effect of the vector on susceptibility, free doxo versus compound; for F. Res (resistance factor): ratio of IC50 values, resistant line K562/ADR versus susceptible K562
Experimental: (§1) The susceptible K562 chronic myeloid leukaemia cells, resistant K562/ADR cells and HL60/R10 promyeloid leukaemia cells are of human origin and were obtained commercially from the ATCC. The cells are inoculated at a rate of approximately 10^4 cells per well, 24 hours before adding the products. The cells are kept in culture at 37° C. in an atmosphere at 95% humidity and 5% CO2 in an OptiMem medium.
[…] At the end of the culture period, MTT (3-(4,5-dimethylthiazole-2-yl)-2,5-diphenyltetrazolium bromide) is added into the wells and the culture plates are then incubated for 4 hours in the incubator. The resulting crystalline formazan deposit is then dissolved by adding 200 μl of DMF/SDS. The optical density (OD) is measured at 550 nm (reference 630 nm) using a microplate reader.
(§2) The graphic representation of the OD percentages of the wells treated as a function of the concentration of products is used to determine the IC50 which corresponds to the concentration of product that inhibits 50% of growth.
The IC50 values are used to quantify the resistance factor (F. Res) of the resistant lines using the following ratio:
The reversion factor (F. Rev) corresponds to the effect of a modulator (the vector) on the susceptibility of the cells to the anti-tumour agents according to the following ratio:
The susceptibility of the cells to anti-tumour agents was measured using the MTT test under the experimental conditions defined above wherein the relationship between the optical density and the number of viable cells is linear.

[2] = system: HL60/R10 promyeloid leukaemia cells; experiment: Cytotoxicity, MTT test, HL60/R10
Experimental: as §1
The susceptible K562 cells and resistant K562/ADR cells are incubated either with free doxorubicin or with doxorubicin in a vector at increasing concentrations after 48 hours in culture in the presence of the products. At the end of the culture period, MTT (3-(4,5-dimethylthiazole-2-yl)-2,5-diphenyltetrazolium bromide) is added into the wells and the culture plates are then incubated for 4 hours in the incubator. The resulting crystalline formazan deposit is then dissolved by adding 200 μl of DMF/SDS. The optical density (OD) is measured at 550 nm (reference 630 nm) using a microplate reader.
as §2
The reversion factor (F. Rev) corresponds to the effect of a modulator (the vector) on the susceptibility of the cells to the anti-tumour agents according to the following ratio: […]

resistant K562/ADR cells [3] = experiment: Internalisation by flow cytometry; conditions: 3 μM, 30 min incubation at 37° C.
Experimental: as §1
The susceptible K562 cells and resistant K562/ADR cells are incubated either with free doxorubicin or with doxorubicin in a vector at a concentration of 3 μM. After 30 minutes of incubation at 37° C., the cells are washed three times with PBS. The internalisation of the products is then analysed by flow cytometry. The samples are analysed with a flow cytometer equipped with a 15 mA argon laser. The fluorescence emitted is recorded on a logarithmic scale at (575 NM) nm after an excitation at (488) nm. The fluorescence is measured on 10,000 cells selected according to the […] parameters. The results are expressed as a percentage of positive cells of the fluorescence intensity logarithm. The results are analysed using the software program Cell Quest.
The susceptible K562 cells and resistant K562/ADR cells are incubated either with free doxorubicin or with doxorubicin in the vector. After 30 min of incubation, the internalisation of the products is measured by flow cytometry.

[4] = system: susceptible K562 chronic myeloid leukaemia cells; experiment: Cytotoxicity, MTT test, susceptible line; conditions: 8 μM, 24 hours incubation

| SMILES | F. Rev (reversion factor) (resistant K562/ADR cells [1]) | F. Res (resistance factor) (resistant K562/ADR cells [1]) | further results |
| --- | --- | --- | --- |
| COc1cccc2c1C(=O)c1c(O)c3c(c(O)c1C2=O)C[C@@](O)(C(=O)CO)C[C@@H]3O[C@H]1C[C@H](NC(=O)CCC(=O)N[C@@H](CCCNC(=N)N)C(=O)NCC(=O)NCC(=O)N[C@@H](CCCNC(=N)N)C(=O)N[C@@H](CC(C)C)C(=O)N[C@@H](CO)C(=O)N[C@@H](Cc2ccc(O)cc2)C(=O)N[C@@H](CO)C(=O)N[C@@H](CCCNC(=N)N)C(=O)N[C@@H](CCCNC(=N)N)C(=O)N[C@@H](CCCNC(=N)N)C(=O)N[C@@H](Cc2ccccc2)C(=O)N[C@@H](CO)C(=O)N[C@H](C(=O)N[C@@H](CO)C(=O)N[C@H](C(=O)NCC(=O)N[C@@H](CCCNC(=N)N)C(=O)O)[C@@H](C)O)[C@@H](C)O)[C@H](O)[C@H](C)O1 [Compound 1, doxo-CO-(CH2)2-CO-RGGRLSYSRRRFSTSTGR] ({Doxorubicin(3'-N)-Suc}-RGGRLSYSRRRFSTSTGR-OH; N-terminus and C-terminus assumed) | 2.5 | 0.7 |  |
| COc1cccc2c1C(=O)c1c(O)c3c(c(O)c1C2=O)C[C@@](O)(C(=O)CO)C[C@@H]3O[C@H]1C[C@H](NC(=O)CCC(=O)N[C@@H](CCCNC(=N)N)C(=O)NCC(=O)NCC(=O)N[C@@H](CCCNC(=N)N)C(=O)N[C@@H](CC(C)C)C(=O)N[C@@H](CO)C(=O)N[C@@H](Cc2ccc(O)cc2)C(=O)N[C@@H](CO)C(=O)N[C@@H](CCCNC(=N)N)C(=O)N[C@@H](CCCNC(=N)N)C(=O)N[C@@H](CCCNC(=N)N)C(=O)N[C@@H](Cc2ccccc2)C(=O)N[C@@H](CO)C(=O)N[C@H](C(=O)N[C@@H](CO)C(=O)N[C@H](C(=O)NCC(=O)N[C@@H](CCCNC(=N)N)C(=O)O)C(C)C)C(C)C)[C@H](O)[C@H](C)O1 [Compound 2, doxo-CO-(CH2)2-CO-RGGRLSYSRRRFSVSVGR] ({Doxorubicin(3'-N)-Suc}-RGGRLSYSRRRFSVSVGR-OH; N-terminus and C-terminus assumed) | 5 | 0.9 | IC50 (resistant K562/ADR cells [1]; FIG. 5 experiment, linked versus not linked with peptide, cell line not given, resistant cells implied, read-out: IC50): 19 µM; F. Rev ([2]; HL60/R10): 1.6 |
| CC[C@H](C)[C@H](NC(=O)CNC(=O)[C@H](CCCNC(=N)N)NC(=O)[C@H](Cc1ccc(O)cc1)NC(=O)[C@H](CO)NC(=O)[C@@H](NC(=O)[C@H](CCCNC(=N)N)NC(=O)[C@H](Cc1ccccc1)NC(=O)[C@H](CO)NC(=O)[C@H](Cc1c[nH]c2ccccc12)NC(=O)[C@H](CCCCN)NC(=O)CCC(=O)N[C@H]1C[C@H](O[C@H]2C[C@](O)(C(=O)CO)Cc3c(O)c4c(c(O)c32)C(=O)c2c(OC)cccc2C4=O)O[C@@H](C)[C@H]1O)C(C)C)C(=O)N[C@@H](CO)C(=O)N[C@@H](Cc1ccc(O)cc1)C(=O)N[C@@H](CCCNC(=N)N)C(=O)N[C@@H](CCCNC(=N)N)C(=O)N[C@@H](CO)C(=O)N[C@@H](CCCNC(=N)N)C(=O)O [Compound 3, doxo-CO-(CH2)2-CO-KWSFRVSYRGISYRRSR] ({Doxorubicin(3'-N)-Suc}-KWSFRVSYRGISYRRSR-OH; N-terminus and C-terminus assumed) | 43 | 0.8 |  |
| COc1cccc2c1C(=O)c1c(O)c3c(c(O)c1C2=O)C[C@@](O)(C(=O)CO)C[C@@H]3O[C@H]1C[C@H](NC(=O)CCC(=O)N[C@@H](CCCNC(=N)N)C(=O)N[C@@H](CCCNC(=N)N)C(=O)N[C@@H](CC(C)C)C(=O)N[C@@H](CO)C(=O)N[C@@H](Cc2ccc(O)cc2)C(=O)N[C@@H](CO)C(=O)N[C@@H](CCCNC(=N)N)C(=O)N[C@@H](CCCNC(=N)N)C(=O)N[C@@H](CCCNC(=N)N)C(=O)N[C@@H](Cc2ccccc2)C(=O)O)[C@H](O)[C@H](C)O1 [Compound 4, doxo-CO-(CH2)2-CO-RRLSYSRRRF] ({Doxorubicin(3'-N)-Suc}-RRLSYSRRRF-OH; N-terminus and C-terminus assumed) | 2.8 | 1 |  |
| CC[C@@H](C)[C@@H](NC(=O)[C@@H](CCCCN)NC(=O)[C@H](NC(=O)[C@@H](CCC(N)=O)NC(=O)[C@@H](CCCNC(=N)N)NC(=O)CCSC1CC(=O)N(CCC(=O)N[C@H]2C[C@H](O[C@H]3C[C@](O)(C(=O)CO)Cc4c(O)c5c(c(O)c43)C(=O)c3c(OC)cccc3C5=O)O[C@@H](C)[C@H]2O)C1=O)[C@H](C)CC)C(=O)N[C@H](Cc1c[nH]c2ccccc12)C(=O)N[C@H](Cc1ccccc1)C(=O)N[C@H](CCC(N)=O)C(=O)N[C@H](CC(N)=O)C(=O)N[C@H](CCCNC(=N)N)C(=O)N[C@H](CCCNC(=N)N)C(=O)N[C@H](CCSC)C(=O)N[C@H](CCCCN)C(=O)N[C@H](Cc1c[nH]c2ccccc12)C(=O)N[C@H](CCCCN)C(=O)N[C@H](CCCCN)C(=O)O (some centres unmarked) [Compound 5, doxo-SMP-3MP-rqikiwfgnrrmkwkk] | 35 | 1.3 | IC50 (resistant K562/ADR cells [1]; resistant line K562/ADR, MTT, 50% growth inhibition, read-out: IC50 K562/ADR): 2 µM; percentage of positive cells (internalisation) (resistant K562/ADR cells [3]): 98% |
| CC[C@H](C)[C@H](NC(=O)[C@H](CCCCN)NC(=O)[C@@H](NC(=O)[C@H](CC(N)=O)NC(=O)[C@H](CCC(=O)O)NC(=O)[C@@H](N)CSC1CC(=O)N(CCC(=O)N[C@H]2C[C@H](O[C@H]3C[C@](O)(C(=O)CO)Cc4c(O)c5c(c(O)c43)C(=O)c3c(OC)cccc3C5=O)O[C@@H](C)[C@H]2O)C1=O)[C@@H](C)CC)C(=O)N[C@@H](Cc1c[nH]c2ccccc12)C(=O)N[C@@H](CC(C)C)C(=O)N[C@@H](CO)C(=O)N[C@@H](CC(C)C)C(=O)N[C@@H](CCCNC(=N)N)C(=O)N[C@@H](CO)C(=O)N[C@@H](Cc1ccc(O)cc1)C(=O)N[C@@H](CC(C)C)C(=O)N[C@@H](CCCCN)C(=O)N[C@@H](CCCNC(=N)N)C(=O)N[C@@H](CCCNC(=N)N)C(=O)O (some centres unmarked) [Compound 6, doxo-SMP-CENIKIWLSLRSYLKRR] (H-C(X1)ENIKIWLSLRSYLKRR-OH; N-terminus and C-terminus assumed) | 12.8 | 1.1 |  |
| COc1cccc2c1C(=O)c1c(O)c3c(c(O)c1C2=O)C[C@@](O)(C(=O)CO)C[C@@H]3O[C@H]1C[C@H](NC(=O)CCC(=O)N[C@@H](CCCNC(=N)N)C(=O)NCC(=O)NCC(=O)N[C@@H](CCCNC(=N)N)C(=O)N[C@@H](CC(C)C)C(=O)N[C@@H](C)C(=O)N[C@@H](Cc2ccc(O)cc2)C(=O)N[C@@H](CC(C)C)C(=O)N[C@@H](CCCNC(=N)N)C(=O)N[C@@H](CCCNC(=N)N)C(=O)N[C@@H](CCCNC(=N)N)C(=O)N[C@@H](Cc2c[nH]c3ccccc23)C(=O)N[C@@H](C)C(=O)N[C@H](C(=O)N[C@@H](CC(C)C)C(=O)N[C@H](C(=O)NCC(=O)N[C@@H](CCCNC(=N)N)C(=O)O)C(C)C)C(C)C)[C@H](O)[C@H](C)O1 [Compound 7, doxo-CO-(CH2)2-CO-RGGRLAYLRRRWAVLVGR] ({Doxorubicin(3'-N)-Suc}-RGGRLAYLRRRWAVLVGR-OH; N-terminus and C-terminus assumed) | >26 | 0.85 |  |
| COc1cccc2c1C(=O)c1c(O)c3c(c(O)c1C2=O)C[C@@](O)(C(=O)CO)C[C@@H]3O[C@H]1C[C@H](N)[C@H](O)[C@H](C)O1 [Free Doxo, doxorubicin, reference compound] |  |  | survival of the cells (resistant K562/ADR cells [1]; K562/ADR resistant cells, 8 μM, 24 hours incubation, MTT): 100%; IC50 (resistant K562/ADR cells [1]; resistant line K562/ADR, MTT, 50% growth inhibition, listed as free doxorubicin, read-out: IC50 K562/ADR): 70 µM; survival of the cells [4]: 15%; percentage of positive cells (internalisation) (resistant K562/ADR cells [3]; listed as free doxorubicin): 5.86% and 5.68%; IC50 ([2]; Homo sapiens, HL-60, HL60/R10 doxorubicin-resistant cells, MTT): 40 µM |
